In US9422289B2, “Use of pteridine derivatives for the treatment of increased intracranial pressure, secondary ischemia, and disorders associated with an increased level of cytotoxic reactive oxygen species” (VASOPHARM GMBH, priority 2003, dated 2016):

Tests used:
[1] = system: Cell proliferation (h) (EGF-stimulated A-431); assay: cells; type: cell-based, human; conditions: 10 µM
[2] = biological target: β2 (h) (Homo sapiens, UniProt P07550); type: binding; conditions: 10 µM
[3] = biological target: D2 (h) (Homo sapiens, UniProt P14416); type: binding; conditions: 10 µM
[4] = system: PDGF; assay: Radioligand binding, Cerep 881; conditions: 10 µM
[5] = biological target: AT2 (h) (Homo sapiens, UniProt P50052); type: binding; conditions: 10 µM
[6] = system: isolated rat basilar arteries (BA); assay: Contractile action in isolated rat basilar arteries
[7] = biological target: K^+ATP channel (Rattus norvegicus, UniProt Q09429); assay: Radioligand binding, Cerep 863-1; conditions: 10 µM
[8] = biological target: T1, Phosphodiesterase V (h) (Homo sapiens, UniProt O76074); type: biochemical; conditions: 10 µM
T1 construct: Cerep (assay catalogue, edition 2002) 752-e

[9] = biological target: β1 (h) (Homo sapiens, UniProt P08588); type: binding; conditions: 10 µM
[10] = system: Ca^2+-ATPase (pump); assay: Cell biology assay, Cerep 735; type: cell-based; conditions: 10 µM
[11] = biological target: 5-HT1B (Rattus norvegicus, UniProt P28564); type: binding; conditions: 10 µM
[12] = biological target: T2, 5-HT2A (h) (Homo sapiens, UniProt P28223); assay: Radioligand binding, Cerep 808-2h; conditions: 10 µM
T2 construct: Cerep (assay catalogue, edition 2002) 808-2h

[13] = biological target: D1 (h) (Homo sapiens, UniProt P21728); type: binding; conditions: 10 µM
[14] = system: α2 (non-selective); assay: Radioligand binding, Cerep 802-1b; conditions: 10 µM
[15] = system: Estrogen (ER); assay: Radioligand binding, Cerep 813; conditions: 10 µM
[16] = biological target: ETA (h) (Homo sapiens, UniProt P25101); type: binding; conditions: 10 µM
[17] = system: Cell proliferation (PDGF-stimulated Balb/c 3T3); assay: Cell biology assay, Cerep 791-3; type: cell-based; conditions: 10 µM
[18] = biological target: DA uptake (Rattus norvegicus, UniProt P23977); type: cell-based; conditions: 10 µM
[19] = system: ATPase (Na^+/K^+); assay: Cell biology assay, Cerep 760; type: biochemical; conditions: 10 µM
[20] = system: IP3; assay: Radioligand binding, Cerep 861-5; conditions: 10 µM
[21] = biological target: GABAB (Rattus norvegicus, UniProt Q9Z0U4); type: binding; conditions: 10 µM
[22] = system: K^+V channel; assay: Radioligand binding, Cerep 863-2; conditions: 10 µM
[23] = system: GABAA; assay: Radioligand binding, Cerep 804-1; conditions: 10 µM
[24] = biological target: AT1 (h) (Homo sapiens, UniProt P30556); assay: Radioligand binding, Cerep 821-1h; conditions: 10 µM
[25] = system: Kainate; assay: Radioligand binding, Cerep 895-2; conditions: 10 µM
[26] = system: Na^+/K^+ ATPase (pump); assay: Cell biology assay, Cerep 734; type: cell-based; conditions: 10 µM
[27] = biological target: H1 (central) (Cavia porcellus, UniProt P31389); type: binding; conditions: 10 µM
[28] = biological target: EGF (h) (Homo sapiens, UniProt P00533); assay: Radioligand binding, Cerep […]; conditions: 10 µM
[29] = biological target: T3, Vitamin D3 (h) (Homo sapiens, UniProt P11473); type: binding; conditions: 10 µM
T3 construct: Cerep (assay catalogue, edition 2002) 848-h

[30] = system: Ca^2+ channel (L, DHP site); type: binding; conditions: 10 µM
[31] = system: Ca^2+ channel (L, diltiazem site); type: binding; conditions: 10 µM
[32] = biological target: M3 (h) (Homo sapiens, UniProt P20309); assay: Radioligand binding, Cerep 806-3h; conditions: 10 µM
[33] = biological target: NE uptake (Rattus norvegicus, UniProt Q63380); type: cell-based; conditions: 10 µM
[34] = system: GABA (non-selective); type: binding; conditions: 10 µM
[35] = biological target: ETB (h) (Homo sapiens, UniProt P24530); assay: Radioligand binding, Cerep 825-2h; conditions: 10 µM
[36] = biological target: T4, NOS inducible (whole cells/spectrophoto.) (Mus musculus, UniProt P29477); assay: Cell biology assay, Cerep 766-i1; type: cell-based; conditions: 10 µM
T4 construct: Cerep (assay catalogue, edition 2002) 766-i1

[37] = system: SK^+Ca channel; assay: Radioligand binding, Cerep 863-3; conditions: 10 µM
[38] = biological target: H2 (Cavia porcellus, UniProt P47747); type: binding; conditions: 10 µM
[39] = biological target: 5-HT uptake (Rattus norvegicus, UniProt P31652); type: cell-based; conditions: 10 µM
[40] = biological target: M2 (h) (Homo sapiens, UniProt P08172); type: binding; conditions: 10 µM
[41] = biological target: T5, NOS constitutive (h) (endothelial) (Homo sapiens, UniProt P29474); type: biochemical; conditions: 10 µM
T5 construct: Cerep (assay catalogue, edition 2002) 766-c

[42] = biological target: M1 (h) (Homo sapiens, UniProt P11229); type: binding; conditions: 10 µM
[43] = system: α1 (non-selective); assay: Radioligand binding, Cerep 802-1a; conditions: 10 µM
[44] = system: Ca^2+ channel (L, verapamil site); assay: Radioligand binding, Cerep 861-L3; conditions: 10 µM
[45] = system: L-type Ca^2+ channel (stimulated); assay: Cell biology assay, Cerep 740-1; type: cell-based; conditions: 10 µM
[46] = system: NMDA; assay: Radioligand binding, Cerep 895-3; conditions: 10 µM
[47] = biological target: PAF (Oryctolagus cuniculus, UniProt G1TEI7); assay: Radioligand binding, Cerep 830; conditions: 10 µM
[48] = system: Na^+ channel (h) (stimulated); assay: Cell biology assay, Cerep 739-1; type: cell-based, human; conditions: 10 µM
[49] = biological target: Phosphodiesterase III (h) (Homo sapiens, UniProt Q14432); assay: Cell biology assay, Cerep 752-ch; type: biochemical; conditions: 10 µM
[50] = system: Protein kinase A (stimulated); assay: Cell biology assay, Cerep 706-2; type: cell-based; conditions: 10 µM
[51] = system: β-adrenoceptor -G protein coupling; type: cell-based; conditions: 10 µM
[52] = system: 5-HT1D; assay: Radioligand binding, Cerep 808-1d; conditions: 10 µM
[53] = biological target: Acetylcholinesterase (h) (Homo sapiens, UniProt P22303); type: biochemical; conditions: 10 µM
[54] = system: β-adrenoceptor - G protein coupling; type: cell-based
[55] = system: AMPA; assay: Radioligand binding, Cerep 895-1; conditions: 10 µM
[56] = system: isolated rat middle cerebral arteries (MCA); assay: Contractile action in isolated rat middle cerebral arteries
[57] = biological target: T6, 5-HT2B (h) (Homo sapiens, UniProt P41595); type: binding; conditions: 10 µM
T6 construct: Cerep (assay catalogue, edition 2002) 808-2bh

Chain of Phosphodiesterase III (h) (Q14432 669-1141 limits assumed): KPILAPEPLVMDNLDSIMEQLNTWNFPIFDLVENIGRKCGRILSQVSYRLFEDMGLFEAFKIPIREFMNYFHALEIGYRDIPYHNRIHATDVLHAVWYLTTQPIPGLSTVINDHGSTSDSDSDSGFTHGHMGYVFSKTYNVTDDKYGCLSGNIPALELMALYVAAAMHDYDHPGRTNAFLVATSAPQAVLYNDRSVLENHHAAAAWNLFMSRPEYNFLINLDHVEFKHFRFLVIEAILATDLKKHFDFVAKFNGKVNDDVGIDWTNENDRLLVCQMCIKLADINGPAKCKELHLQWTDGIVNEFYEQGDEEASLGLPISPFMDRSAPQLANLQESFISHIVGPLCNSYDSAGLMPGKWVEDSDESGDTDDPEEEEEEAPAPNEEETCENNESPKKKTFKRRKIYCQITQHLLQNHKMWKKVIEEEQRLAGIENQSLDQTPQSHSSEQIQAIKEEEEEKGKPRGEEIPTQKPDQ
Chain of DA uptake (P23977 whole entry): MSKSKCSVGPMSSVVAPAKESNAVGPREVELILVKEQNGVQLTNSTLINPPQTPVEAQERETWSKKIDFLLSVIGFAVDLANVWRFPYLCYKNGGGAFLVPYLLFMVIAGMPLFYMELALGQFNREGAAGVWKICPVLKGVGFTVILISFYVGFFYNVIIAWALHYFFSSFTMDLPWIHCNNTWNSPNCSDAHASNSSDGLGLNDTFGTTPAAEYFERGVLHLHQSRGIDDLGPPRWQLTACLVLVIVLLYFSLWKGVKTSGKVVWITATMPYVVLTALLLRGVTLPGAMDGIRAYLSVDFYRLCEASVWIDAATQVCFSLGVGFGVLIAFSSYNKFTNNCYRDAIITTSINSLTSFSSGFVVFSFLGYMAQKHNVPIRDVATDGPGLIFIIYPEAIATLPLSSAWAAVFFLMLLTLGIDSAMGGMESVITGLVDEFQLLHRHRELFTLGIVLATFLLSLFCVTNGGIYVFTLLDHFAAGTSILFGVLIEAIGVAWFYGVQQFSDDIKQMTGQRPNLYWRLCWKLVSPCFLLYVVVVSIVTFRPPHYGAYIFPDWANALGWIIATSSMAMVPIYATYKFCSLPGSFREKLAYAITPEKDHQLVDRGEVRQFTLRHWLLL
Chain of PAF (G1TEI7 1-342): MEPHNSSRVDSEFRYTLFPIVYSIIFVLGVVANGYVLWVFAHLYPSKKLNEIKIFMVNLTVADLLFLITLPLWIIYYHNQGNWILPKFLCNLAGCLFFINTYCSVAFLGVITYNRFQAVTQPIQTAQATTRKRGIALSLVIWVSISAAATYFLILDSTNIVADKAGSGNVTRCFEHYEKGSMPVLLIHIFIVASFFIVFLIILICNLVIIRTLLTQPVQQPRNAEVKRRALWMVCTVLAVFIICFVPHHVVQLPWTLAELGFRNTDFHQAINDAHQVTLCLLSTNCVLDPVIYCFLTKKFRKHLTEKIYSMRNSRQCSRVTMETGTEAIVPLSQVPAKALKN
Chain of M3 (h) (P20309 whole entry): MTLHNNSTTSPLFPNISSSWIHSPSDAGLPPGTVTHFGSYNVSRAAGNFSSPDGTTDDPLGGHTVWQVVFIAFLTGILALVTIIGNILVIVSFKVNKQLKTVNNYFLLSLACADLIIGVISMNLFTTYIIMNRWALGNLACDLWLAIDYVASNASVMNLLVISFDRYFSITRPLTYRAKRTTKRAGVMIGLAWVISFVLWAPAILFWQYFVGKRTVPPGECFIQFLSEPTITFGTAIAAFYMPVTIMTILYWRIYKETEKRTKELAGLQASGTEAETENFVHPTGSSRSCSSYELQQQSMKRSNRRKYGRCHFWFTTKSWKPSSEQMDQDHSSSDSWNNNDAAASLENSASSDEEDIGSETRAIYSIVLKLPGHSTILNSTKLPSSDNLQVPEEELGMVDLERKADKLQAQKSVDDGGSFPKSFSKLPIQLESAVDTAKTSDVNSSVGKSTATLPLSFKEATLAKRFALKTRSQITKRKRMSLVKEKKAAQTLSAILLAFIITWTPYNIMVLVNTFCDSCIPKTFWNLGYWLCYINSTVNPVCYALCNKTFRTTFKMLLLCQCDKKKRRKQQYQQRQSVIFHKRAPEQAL
Chain of ETA (h) (P25101 21-427): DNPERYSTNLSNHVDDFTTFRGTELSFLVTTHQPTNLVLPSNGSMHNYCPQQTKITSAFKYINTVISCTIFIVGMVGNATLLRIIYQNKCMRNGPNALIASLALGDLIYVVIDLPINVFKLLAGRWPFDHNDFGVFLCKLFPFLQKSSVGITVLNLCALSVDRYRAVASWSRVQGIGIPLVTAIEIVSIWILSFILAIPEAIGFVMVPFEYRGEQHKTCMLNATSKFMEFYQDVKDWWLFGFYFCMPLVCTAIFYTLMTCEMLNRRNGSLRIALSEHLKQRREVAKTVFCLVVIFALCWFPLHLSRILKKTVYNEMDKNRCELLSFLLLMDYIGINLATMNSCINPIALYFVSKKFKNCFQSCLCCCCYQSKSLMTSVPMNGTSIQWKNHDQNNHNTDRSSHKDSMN
Chain of GABAB (O88871 41-940): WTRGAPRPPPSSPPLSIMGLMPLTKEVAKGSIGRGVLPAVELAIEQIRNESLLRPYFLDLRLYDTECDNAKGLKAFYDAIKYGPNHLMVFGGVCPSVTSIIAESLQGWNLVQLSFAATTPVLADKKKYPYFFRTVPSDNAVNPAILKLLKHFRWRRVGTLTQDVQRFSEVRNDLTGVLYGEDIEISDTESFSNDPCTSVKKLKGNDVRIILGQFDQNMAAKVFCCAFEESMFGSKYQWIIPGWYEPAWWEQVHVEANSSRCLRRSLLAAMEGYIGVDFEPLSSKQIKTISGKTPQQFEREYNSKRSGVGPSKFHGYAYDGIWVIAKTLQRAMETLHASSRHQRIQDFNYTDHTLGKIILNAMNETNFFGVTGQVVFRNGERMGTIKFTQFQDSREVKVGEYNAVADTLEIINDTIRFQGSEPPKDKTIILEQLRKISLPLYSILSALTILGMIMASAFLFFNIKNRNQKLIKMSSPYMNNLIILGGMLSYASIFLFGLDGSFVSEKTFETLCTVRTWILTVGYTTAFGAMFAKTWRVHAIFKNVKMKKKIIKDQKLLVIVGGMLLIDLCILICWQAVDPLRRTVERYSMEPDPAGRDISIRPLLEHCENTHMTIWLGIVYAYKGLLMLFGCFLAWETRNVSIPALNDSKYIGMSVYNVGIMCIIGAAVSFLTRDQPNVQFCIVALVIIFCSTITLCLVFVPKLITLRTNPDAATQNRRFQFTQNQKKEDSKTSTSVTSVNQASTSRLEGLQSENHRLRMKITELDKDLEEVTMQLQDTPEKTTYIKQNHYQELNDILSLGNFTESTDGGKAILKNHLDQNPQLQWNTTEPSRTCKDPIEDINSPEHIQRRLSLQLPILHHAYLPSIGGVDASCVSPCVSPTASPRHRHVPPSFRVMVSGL
Chain of GABAB (Q9Z0U4 20-960): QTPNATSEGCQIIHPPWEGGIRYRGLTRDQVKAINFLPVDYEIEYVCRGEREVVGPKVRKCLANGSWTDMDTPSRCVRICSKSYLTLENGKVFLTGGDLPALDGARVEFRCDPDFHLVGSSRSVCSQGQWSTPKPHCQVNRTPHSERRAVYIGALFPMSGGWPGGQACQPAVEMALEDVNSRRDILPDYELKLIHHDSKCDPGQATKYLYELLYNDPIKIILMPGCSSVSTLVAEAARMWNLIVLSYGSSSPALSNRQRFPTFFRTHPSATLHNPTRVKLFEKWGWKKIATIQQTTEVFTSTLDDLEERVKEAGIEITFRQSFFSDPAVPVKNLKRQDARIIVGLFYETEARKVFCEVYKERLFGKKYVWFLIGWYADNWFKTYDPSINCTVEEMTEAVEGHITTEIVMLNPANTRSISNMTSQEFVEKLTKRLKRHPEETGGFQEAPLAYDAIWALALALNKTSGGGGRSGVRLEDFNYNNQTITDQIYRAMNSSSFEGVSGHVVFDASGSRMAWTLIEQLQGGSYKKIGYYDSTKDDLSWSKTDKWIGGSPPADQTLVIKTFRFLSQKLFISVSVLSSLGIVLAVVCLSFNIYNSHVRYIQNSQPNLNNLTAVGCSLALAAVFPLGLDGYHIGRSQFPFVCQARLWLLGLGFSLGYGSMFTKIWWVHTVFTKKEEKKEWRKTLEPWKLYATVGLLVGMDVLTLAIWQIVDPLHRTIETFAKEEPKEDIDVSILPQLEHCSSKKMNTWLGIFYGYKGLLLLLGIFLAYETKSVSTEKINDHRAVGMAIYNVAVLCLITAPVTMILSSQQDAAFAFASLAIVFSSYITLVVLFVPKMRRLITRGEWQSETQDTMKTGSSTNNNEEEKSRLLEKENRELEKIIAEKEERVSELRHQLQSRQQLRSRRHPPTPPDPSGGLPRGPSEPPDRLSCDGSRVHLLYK
T3 sequence (P11473 whole entry): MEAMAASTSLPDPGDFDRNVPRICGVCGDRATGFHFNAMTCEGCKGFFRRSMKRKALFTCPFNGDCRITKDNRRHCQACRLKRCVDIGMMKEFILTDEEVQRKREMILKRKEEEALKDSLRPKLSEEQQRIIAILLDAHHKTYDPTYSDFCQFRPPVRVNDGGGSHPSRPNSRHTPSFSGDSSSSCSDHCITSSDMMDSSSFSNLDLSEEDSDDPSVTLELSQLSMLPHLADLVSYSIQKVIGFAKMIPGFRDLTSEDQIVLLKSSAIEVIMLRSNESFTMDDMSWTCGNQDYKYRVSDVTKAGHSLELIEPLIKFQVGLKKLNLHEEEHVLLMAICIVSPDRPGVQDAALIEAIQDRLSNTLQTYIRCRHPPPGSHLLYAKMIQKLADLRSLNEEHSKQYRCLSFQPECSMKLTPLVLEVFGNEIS

CC(O)C(O)C1CNc2nc(N)nc(N)c2N1 [H4-aminobiopterin, 2,4-diamino-5,6,7,8-tetrahydro-6-(L-erythro-1,2-dihydroxypropyl)-pteridine]
percent inhibition of control activity [1]: 23%
percent inhibition of control specific binding [2]: — (key: The symbol — indicates an inhibition of less than 10%.)
percent inhibition of control specific binding [3]: — (key: The symbol — indicates an inhibition of less than 10%.)
percent inhibition of control specific binding [4]: — (key: The symbol — indicates an inhibition of less than 10%.)
percent inhibition of control specific binding [5]: 16%
contraction relative to contraction caused by 124 mM K^+-Krebs solution [6]: clear concentration dependent contraction
percent inhibition of control specific binding [7]: — (key: The symbol — indicates an inhibition of less than 10%.)
percent inhibition of control activity [8]: — (key: The symbol — indicates an inhibition of less than 10%.)
percent inhibition of control specific binding [9]: — (key: The symbol — indicates an inhibition of less than 10%.)
percent inhibition of control activity [10]: — (key: The symbol — indicates an inhibition of less than 10%.)
percent inhibition of control specific binding [11]: — (key: The symbol — indicates an inhibition of less than 10%.)
percent inhibition of control specific binding [12]: — (key: The symbol — indicates an inhibition of less than 10%.)
percent inhibition of control specific binding [13]: — (key: The symbol — indicates an inhibition of less than 10%.)
percent inhibition of control specific binding [14]: — (key: The symbol — indicates an inhibition of less than 10%.)
percent inhibition of control specific binding [15]: — (key: The symbol — indicates an inhibition of less than 10%.)
percent inhibition of control specific binding [16]: — (key: The symbol — indicates an inhibition of less than 10%.)
percent inhibition of control activity [17]: — (key: The symbol — indicates an inhibition of less than 10%.)
percent inhibition of control activity [18]: — (key: The symbol — indicates an inhibition of less than 10%.)
percent inhibition of control activity [19]: — (key: The symbol — indicates an inhibition of less than 10%.)
percent inhibition of control specific binding [20]: — (key: The symbol — indicates an inhibition of less than 10%.)
percent inhibition of control specific binding [21]: — (key: The symbol — indicates an inhibition of less than 10%.)
percent inhibition of control specific binding [22]: — (key: The symbol — indicates an inhibition of less than 10%.)
percent inhibition of control specific binding [23]: — (key: The symbol — indicates an inhibition of less than 10%.)
percent inhibition of control specific binding [24]: — (key: The symbol — indicates an inhibition of less than 10%.)
percent inhibition of control specific binding [25]: — (key: The symbol — indicates an inhibition of less than 10%.)
percent inhibition of control activity [26]: — (key: The symbol — indicates an inhibition of less than 10%.)
percent inhibition of control specific binding [27]: — (key: The symbol — indicates an inhibition of less than 10%.)
percent inhibition of control specific binding [28]: 10%
percent inhibition of control specific binding [29]: — (key: The symbol — indicates an inhibition of less than 10%.)
percent inhibition of control specific binding [30]: — (key: The symbol — indicates an inhibition of less than 10%.)
percent inhibition of control specific binding [31]: — (key: The symbol — indicates an inhibition of less than 10%.)
percent inhibition of control specific binding [32]: 10%
percent inhibition of control activity [33]: — (key: The symbol — indicates an inhibition of less than 10%.)
percent inhibition of control specific binding [34]: — (key: The symbol — indicates an inhibition of less than 10%.)
percent inhibition of control specific binding [35]: — (key: The symbol — indicates an inhibition of less than 10%.)
percent inhibition of control activity [36]: — (key: The symbol — indicates an inhibition of less than 10%.)
percent inhibition of control specific binding [37]: — (key: The symbol — indicates an inhibition of less than 10%.)
percent inhibition of control specific binding [38]: — (key: The symbol — indicates an inhibition of less than 10%.)
percent inhibition of control activity [39]: — (key: The symbol — indicates an inhibition of less than 10%.)
percent inhibition of control specific binding [40]: — (key: The symbol — indicates an inhibition of less than 10%.)
percent inhibition of control activity [41]: 76%
percent inhibition of control specific binding [42]: — (key: The symbol — indicates an inhibition of less than 10%.)
percent inhibition of control specific binding [43]: — (key: The symbol — indicates an inhibition of less than 10%.)
percent inhibition of control specific binding [44]: — (key: The symbol — indicates an inhibition of less than 10%.)
percent inhibition of control activity [45]: — (key: The symbol — indicates an inhibition of less than 10%.)
percent inhibition of control specific binding [46]: — (key: The symbol — indicates an inhibition of less than 10%.)
percent inhibition of control specific binding [47]: — (key: The symbol — indicates an inhibition of less than 10%.)
percent inhibition of control activity [48]: 12%
percent inhibition of control activity [49]: — (key: The symbol — indicates an inhibition of less than 10%.)
percent inhibition of control activity [50]: — (key: The symbol — indicates an inhibition of less than 10%.)
percent of inhibition of control activity [51]: 31%
percent inhibition of control specific binding [52]: — (key: The symbol — indicates an inhibition of less than 10%.)
percent inhibition of control activity [53]: — (key: The symbol — indicates an inhibition of less than 10%.)
stimulation of control activity [54]: 11
percent inhibition of control specific binding [55]: — (key: The symbol — indicates an inhibition of less than 10%.)
contraction relative to contraction caused by 124 mM K^+-Krebs solution [56]: clear concentration dependent contraction
percent inhibition of control specific binding [57]: — (key: The symbol — indicates an inhibition of less than 10%.)
